Results taken from patent US11090292B2, “Compositions and methods of use of an inappetance-controlling compound” (Aratana Therapeutics, Inc., priority 2012, dated 2021).

How the values were obtained:
IGF-1 = test: Example 5: serum IGF-1; format: in vivo, Beagle dogs; conditions: by Day 4, remained elevated on Day 7, Groups 2-4
Method: In order to further refine the dosing regimen that would provide an appropriate blood profile of capromorelin and desired results from the perspective of increased food intake and weight gain, an additional series of experiments were conducted. In these experiments, twenty-four adult (male and female) Beagle dogs weighing approximately 9 to 13 kilograms were randomly divided into four groups. Group 1 received a placebo formulation, without any active compound, two times per day; Group 2 received a composition comprising 3 mg/kg of body weight of capromorelin one time per day; Group 3 received a composition comprising 4.5 mg/kg of body weight of capromorelin one time per day; and Group 4 received a composition comprising 3 mg/kg of body weight of capromorelin two times per day. […]
In these experiments, the animals were orally administered the flavored formulation at approximately 8:00 AM and, for Group 4 only, again at 6:00 PM. […] Food consumption was calculated and recorded on Days −7 through Day 7. Baseline food consumption was calculated for each individual dog as the average number of grams of food consumed on Days −3, −2, and −1. The study period food consumption was calculated for each individual dog as the average of Days 1 through 7. […]

growth hormone (GH) = test: Example 1: serum GH concentration; format: in vivo, Beagle dogs; conditions: once-daily 6 mg/kg or twice-daily 3 mg/kg, approximately 0.5 h after dosing, days 1, 2, 4, 7
Method: A controlled, seven-day study was performed to assess the impact of different capromorelin-dosing regimens on the production of insulin-like growth factor 1 (hereinafter “IGF-1”), growth hormone (hereinafter “GH”), and cortisol. The different capromorelin-dosing regimens were also assessed for the impact on food intake and changes in body mass.
Eighteen adult non-naïve Beagle dogs (nine males and nine females) were divided into one of three treatment groups. Each of the three treatment groups included three males and three females. Group A, which was the control group, was dosed twice per day, via oral gavage, with a vehicle (deionized water alone) and was used as a baseline data point for comparison against the active treatment regimens. Group B comprised an active treatment group that received two treatments per day, via oral gavage, with a capromorelin-containing composition with a concentration of 3 mg/kg capromorelin per treatment. Finally, Group C comprised an active treatment group that received one treatment per day, via oral gavage, with a capromorelin-containing composition with a concentration of 6 mg/kg capromorelin per treatment.
During the ten day study period, on an at least once-daily basis, each of the dogs was monitored for clinical observations, mortality, morbidity, body mass, and food consumption. […]

**Q.** With `CN1N=C2CCN(C(=O)[C@@H](COCc3ccccc3)NC(=O)C(C)(C)N)C[C@@]2(Cc2ccccc2)C1=O.O=C(O)C(O)C(O)C(=O)O` [capromorelin] as the compound, how does the “IGF-1 levels in treated animals” value (IGF-1) read?
**A.** Its value is “sustained increase”.

**Q.** And the “GH levels in the serum after dosing” value (growth hormone (GH))?
**A.** The value was “marked increase”.
